Test results: patent US8283358B2, “N-sulfonamido polycyclic pyrazolyl compounds” (Elan Pharmaceuticals, Inc., priority 2008, dated 2012)
Where two headings read alike, the source gives them in different places.

Target: T1, gamma-secretase (partially purified extract of IMR-32 cell membranes; substrate MBP-C125 Swe fusion protein, cleavage at the Aβ40 site) (Homo sapiens, UniProt P49768)
T1 construct: a partially purified extract of IMR-32 cell membranes as the gamma-secretase enzyme preparation; endogenous in cells; host or cells: IMR-32 cell membranes, partially purified extract
Test: Gamma-secretase APP enzyme assay (Example A)
Format: biochemical
Conditions: assay described in Example A
Source text: The gamma-secretase APP enzyme assay was designed to measure the specific proteolytic cleavage of an APP substrate (MBP-C125 Swe fusion protein) at the Aβ40 site. […] This assay involved two steps beginning with the enzymatic reaction generating a cleavage product that was captured with an immobilized antibody specific for the neo-epitope Aβ40 site. The captured cleavage product was then detected in a sandwich ELISA assay with a biotinylated reporter antibody that is specific to Aβ(17-28). Streptavidin-linked alkaline phosphatase was then added that would generate a fluorescent signal proportional to the amount of cleavage product.
This warmed solution of BigCHAPS (N,N-Bis(3-D-gluconamidopropyl)cholamide) detergent was used to dissolve Brain Extract Type-V (lipid containing a minimum of 40% phosphatidylethanolamine) from Sigma (St. Louis, Mo.) to a concentration of 8 mg/ml. This solution containing BigCHAPS and lipid at 8 mg/ml is then diluted to 0.53 mg/ml lipid with a pre-warmed solution of Hepes and sodium chloride.
Gamma-secretase was then added to a 96-well micro-titre plate and then incubated with various concentrations of inhibitor for 30 minutes at 37° C. MBPC125 substrate was then added to initiate the reaction that would run for two hours at 37° C. The reaction was quenched with the addition of SDS to a final concentration of 0.1% and then 100 μl of the reaction mixture was transferred to a capture ELISA plate and incubated overnight at 4° C. Detection of the cleavage product was performed using a standard sandwich ELISA assay and quantified using a six point standard curve.

[1] = class symbols, read-out: γAPP IC50

SMILES	IC50 [1] [nM]	also measured
O=S(=O)(c1ccc(C(F)(F)F)cc1)N1C2c3cn[nH]c3C(F)C1c1cccc(F)c12 (single isomer, unassigned) [compound 263]	< 100	–
O=S(=O)(c1ccc(C(F)(F)F)cc1)N1C2Cc3[nH]ncc3C1C(c1ccc(F)cc1)C2 (stereo not drawn) [compound 61]	< 100	–
O=C1c2[nH]ncc2C2c3ccccc3C1N2S(=O)(=O)c1ccc(C(F)(F)F)cc1 (stereo not drawn) [compound 71]	< 100	–
O=S(=O)(c1ccc(C(F)(F)F)cc1)N1C2Cc3[nH]ncc3C1c1ccccc12 (stereo not drawn) [compound 72]	> 1000	–
O=S(=O)(c1ccc(C(F)(F)F)nc1)N1C2Cc3ccccc3C1c1c[nH]nc1C2 (stereo not drawn) [compound 88]	< 100	–
O=S(=O)(c1ccc(C(F)(F)F)cc1)N1C2Cc3[nH]ncc3C1c1cc(F)c(F)cc12 (stereo not drawn) [compound 95]	< 100	–
O=S(=O)(c1ccc(C(F)(F)F)cc1)N1C2Cc3n[nH]cc3C1c1c(F)cccc12 (stereo not drawn) [compound 96]	–	IC50 (γAPP IC50 (nM), class symbols): < 100 nM
O=S(=O)(c1ccc(C(F)(F)F)nc1)N1C2Cc3[nH]ncc3C1c1ccccc12 (stereo not drawn) [compound 98]	< 100	–
O=C1c2n[nH]cc2C2c3c(F)cccc3C1N2S(=O)(=O)c1ccc(C(F)(F)F)cc1 (stereo not drawn) [compound 103]	< 100	–
O=S(=O)(c1ccc(C(F)(F)F)cc1)N1C2Cc3n[nH]cc3C1CC(c1ccc(Br)cc1)C2 (stereo not drawn) [compound 106]	< 100	–
O=S(=O)(c1ccc(C(F)(F)F)nc1)N1C2Cc3[nH]ncc3C1CC(c1ccc3c(c1)OCO3)C2 (stereo not drawn) [compound 108]	< 100	–
O=S(=O)(c1ccc(C(F)(F)F)cc1)N1C2Cc3[nH]ncc3C1CC(c1ccc(-c3cscn3)cc1)C2 (stereo not drawn) [compound 116]	< 100	–
O=S(=O)(c1ccc(C(F)(F)F)cc1)N1C2Cc3[nH]ncc3C1c1cnccc12 (stereo not drawn) [compound 120]	> 1000	–
O=S(=O)(c1ccc(C(F)(F)F)cc1)N1C2c3c[nH]nc3C(F)(F)C1c1cccc(F)c12 (stereo not drawn) [compound 123]	< 100	–
O=S(=O)(c1ccc(C(F)(F)F)cc1)N1C2Cc3[nH]ncc3C1CC(c1ccc(-n3cccn3)cc1)C2 (stereo not drawn) [compound 124]	< 100	–
O=S(=O)(c1ccc(C(F)(F)F)cc1)N1C2c3c[nH]nc3C(F)(F)C1c1cccc(F)c12 (stereo not drawn) [compound 128]	< 100	–
O=S(=O)(c1ccc(C(F)(F)F)nc1)N1C2Cc3n[nH]cc3C1c1c(F)cccc12 (stereo not drawn) [compound 129]	–	IC50 (γAPP IC50 (nM), numeric bounds given instead of class symbols): > 10 nM
O=S(=O)(c1ccc(C(F)(F)F)nc1)N1C2Cc3n[nH]cc3C1c1c(F)cccc12 (stereo not drawn) [compound 130]	–	IC50 (γAPP IC50 (nM), class symbols): < 100 nM

Second part, led by results:

IC50 [1] [nM]	SMILES	also measured
< 100	O=S(=O)(c1ccc(C(F)(F)F)cc1)N1C2C=C(C3CC3)C1c1c[nH]nc1C2 (stereo not drawn) [compound 44]	–
< 100	O=S(=O)(c1ccc(C(F)(F)F)cc1)N1C2Cc3n[nH]cc3C1C(C1CC1)C2 (stereo not drawn) [compound 45]	–
100 to 499	O=S(=O)(c1ccc(C(F)(F)F)cc1)N1C2Cc3[nH]ncc3C1C=C2c1ccc(F)cc1 (stereo not drawn) [compound 60]	–
< 100	O=C1c2n[nH]cc2C2c3cc(F)c(F)cc3C1N2S(=O)(=O)c1ccc(C(F)(F)F)cc1 (stereo not drawn) [compound 69]	–
< 100	O=S(=O)(c1ccc(C(F)(F)F)cc1)N1C2c3cc(F)c(F)cc3C1C(F)(F)c1n[nH]cc12 (stereo not drawn) [compound 77]	–
< 100	O=S(=O)(c1ccc(C(F)(F)F)cc1)N1C2Cc3[nH]ncc3C1c1cccnc12 (stereo not drawn) [compound 100]	–
< 100	O=C1c2n[nH]cc2C2c3cccc(F)c3C1N2S(=O)(=O)c1ccc(C(F)(F)F)cc1 (stereo not drawn) [compound 104]	–
< 100	O=S(=O)(c1ccc(Cl)cc1)N1C2Cc3[nH]ncc3C1CC(c1ccncn1)C2 (stereo not drawn) [compound 107]	–
> 1000	NC1CCCCC1Nc1ccc(C2CC3Cc4n[nH]cc4C(C2)N3S(=O)(=O)c2ccc(C(F)(F)F)cc2)cc1 (stereo not drawn) [compound 117]	–
< 100	O=S(=O)(c1ccc(C(F)(F)F)cc1)N1C2c3c[nH]nc3C(F)(F)C1c1c(F)cccc12 (stereo not drawn) [compound 121]	–
< 100	O=S(=O)(c1ccc(C(F)(F)F)cc1)N1C2Cc3n[nH]cc3C1CC(c1cccc(Br)c1)C2 (stereo not drawn) [compound 125]	–
< 100	O=S(=O)(c1ccc(C(F)(F)F)cc1)N1C2c3c[nH]nc3C(F)(F)C1c1cccc(F)c12 (stereo not drawn) [compound 127]	–
